Assay results taken from publication PMC10434227 (Microbiology Spectrum, 2023).
Structures can show the parent of a compound that is named as a salt. Where two headings read alike, the source gives them in different places.

Assays:
[1] = tested on: MPXV USA-2003 (NR-2500) clade II; assay: microbe, parasite or virus in culture; format: cell-based, monkeypox virus (MPXV)
rVACV Nluc/Scarlet [2] = assay: microbe, parasite or virus in culture; format: cell-based, vaccinia virus (VACV)
rVACV Nluc/GFP [3] = assay: microbe, parasite or virus in culture; format: cell-based, vaccinia virus (VACV)
A549 cells [4] = tested on: A549 cells
A549 cells [5] = tested on: A549 cells; remark: listed apart in the source
in vitro [6] = conditions: human
in vitro [7] = conditions: human; remark: listed apart in the source
rVACV Nluc/GFP [8] = format: cell-based, vaccinia virus (VACV)
rVACV Nluc/Scarlet [9] = format: cell-based, vaccinia virus (VACV)
MPXV = format: cell-based, monkeypox virus (MPXV)
[10] = read-out: EC50 FP (Scarlet fluorescence)
[11] = read-out: EC50 FP (GFP fluorescence)
[12] = Monkeypox virus, A549, read-out: EC50 against MPXV
[13] = Orthopoxvirus vaccinia, A549, read-out: EC50 FP (Scarlet fluorescence)
[14] = Orthopoxvirus vaccinia, A549, read-out: EC50 Nluc
[15] = Orthopoxvirus vaccinia, A549, read-out: EC50 FP (GFP fluorescence)

Compound	inhibitory activity against MPXV (in words) [1]	EC50 ([1]; read-out: EC50 against MPXV)	EC50 (rVACV Nluc/Scarlet [2]; [10])	EC50 (rVACV Nluc/Scarlet [2]; read-out: EC50 Nluc)	EC50 (rVACV Nluc/GFP [3]; [11])	EC50 (rVACV Nluc/GFP [3]; read-out: EC50 Nluc)	CC50 (A549 cells [4])	CC50 (A549 cells [5])	EC50 [1, 12]	EC50 (rVACV Nluc/Scarlet [2]; [13])	EC50 (rVACV Nluc/Scarlet [2]; [14])	EC50 (rVACV Nluc/GFP [3]; [15])	EC50 (rVACV Nluc/GFP [3]; [14])	CC50 (in vitro [6])	CC50 (in vitro [7])	extracellular viral titers (rVACV Nluc/GFP [8])	extracellular viral titers (rVACV Nluc/Scarlet [9])	extracellular viral titers (MPXV)
2,2′-bi-1H-benzimidazole	did not inhibit MPXV infection	> 50000 nM	> 50000 nM	> 50000 nM	> 50000 nM	> 50000 nM	> 50 µM	> 50 µM	–	–	–	–	–	–	–	–	–	–
2′,3′,5′-triacetyl-6-azauridine [Azaribine]	–	–	1320 nM	1410 nM	1030 nM	1130 nM	> 150 µM	> 150 µM	–	–	–	–	–	–	–	–	–	–
CC[C@H](CC#N)OC(=O)N[C@@H](C)c1cccc(NC(=O)Nc2ccc(-c3cnco3)c(OC)c2)c1 [AVN-944]	–	–	–	–	–	–	–	–	170 nM	130 nM	110 nM	70 nM	70 nM	> 50 µM	> 50 µM	–	–	–
S=C(NCc1ccc2c(c1)OCO2)N1CCN(c2ncnc3c2oc2ccccc23)CC1 [Amuvatinib, amuvatinib]	–	–	–	6630 nM	–	–	–	–	3470 nM	4760 nM	6830 nM	3260 nM	3890 nM	–	–	–	–	–
CCCCCC[C@H]1C(=O)O[C@H](C)[C@H](NC(=O)c2cccc(NC=O)c2O)C(=O)O[C@@H](C)[C@@H]1OC(=O)CC(C)C [Antimycin A, antimycin A]	–	–	–	–	60 nM	120 nM	–	–	10 nM	70 nM	90 nM	80 nM	130 nM	–	–	–	–	–
O=c1cnn([C@@H]2O[C@H](CO)[C@@H](O)[C@H]2O)c(=O)[nH]1 [Azauridine, 6-azauridine]	–	–	640 nM	–	–	1580 nM	–	–	2390 nM	840 nM	1510 nM	1740 nM	1590 nM	> 50 µM	> 50 µM	–	–	–
CO/C=C(/C(=O)OC)c1ccccc1Oc1cc(Oc2ccccc2C#N)ncn1 [Azoxystrobin, azoxystrobin]	–	10800 nM	7920 nM	6100 nM	7850 nM	6120 nM	27.9 µM	> 450 µM	–	–	–	–	–	–	–	–	–	–
Cc1c(-c2ccc(-c3ccccc3F)cc2)nc2ccc(F)cc2c1C(=O)O [Brequinar, brequinar sodium salt hydrate]	–	–	–	–	–	40 nM	–	–	160 nM	120 nM	110 nM	180 nM	< 40 nM	> 50 µM	> 50 µM	–	–	–
CC(C)(C)[C@H]1CC[C@H](CC2=C(O)C(=O)c3ccccc3C2=O)CC1 [Buparvaquone, buparvaquone]	–	–	–	–	1950 nM	–	–	–	7220 nM	1760 nM	1120 nM	1850 nM	1070 nM	–	–	–	–	–
CC[C@@]1([C@@H]2O[C@@H]([C@H]3O[C@@](O)(CO)[C@H](C)C[C@@H]3C)C[C@@H]2C)CC[C@H]([C@]2(C)CC[C@]3(C[C@H](O)[C@@H](C)[C@@H]([C@@H](C)[C@@H](OC)[C@H](C)C(=O)O)O3)O2)O1 [Monensin, monensin sodium salt]	–	–	–	–	–	–	–	–	50 nM	70 nM	80 nM	80 nM	130 nM	> 50 µM	> 50 µM	–	–	–
FC(F)(F)c1ccc(/C=C/c2nc(COc3ccc(CCCCn4ccnn4)cc3)co2)cc1 [Mubritinib, mubritinib]	–	–	93 nM	–	–	–	–	–	38 nM	50 nM	37 nM	65 nM	33 nM	–	–	–	–	–
COc1c(C)c2c(c(O)c1C/C=C(\C)CCC(=O)OCCN1CCOCC1)C(=O)OC2 [Mycophenolate mofetil, mycophenolate mofetil]	–	1960 nM	–	–	–	930 nM	–	–	1060 nM	1200 nM	1040 nM	870 nM	800 nM	> 150 µM	> 150 µM	–	–	–
COc1c(C)c2c(c(O)c1C/C=C(\C)CCC(=O)O)C(=O)OC2 [Mycophenolic acid, mycophenolic acid]	–	–	–	–	–	–	–	–	710 nM	460 nM	490 nM	590 nM	430 nM	> 150 µM	> 150 µM	–	–	–
CC[C@@H](C(=O)O)[C@@H]1O[C@@H]([C@@H](C)[C@H](O)[C@H](C)C(=O)[C@H](CC)[C@H]2O[C@]3(C=C[C@@H](O)[C@]4(CC[C@@](C)([C@H]5CC[C@](O)(CC)[C@H](C)O5)O4)O3)[C@H](C)C[C@@H]2C)[C@@H](C)C[C@@H]1C [Narasin, narasin sodium salt]	–	–	–	–	–	–	–	–	50 nM	20 nM	20 nM	10 nM	30 nM	–	–	–	–	–
NCC(=O)Nc1ccc(-n2nc(C(F)(F)F)cc2-c2ccc3c(ccc4ccccc43)c2)cc1 [Osu-03012, OSU-03012]	–	–	–	–	–	2650 nM	–	–	4390 nM	2320 nM	2590 nM	3290 nM	2950 nM	–	–	–	–	–
NC(=O)c1[nH]nc([C@@H]2O[C@H](CO)[C@@H](O)[C@H]2O)c1O [Pyrazofurin, pyrazofurin]	–	–	270 nM	–	–	–	–	–	3400 nM	370 nM	110 nM	530 nM	240 nM	> 50 µM	> 50 µM	–	–	–
C=C(C)[C@H]1Cc2c(ccc3c2O[C@@H]2COc4cc(OC)c(OC)cc4[C@@H]2C3=O)O1 [Rotenone, rotenone]	–	–	–	–	–	–	–	–	7 nM	15 nM	8 nM	10 nM	7 nM	–	–	–	–	–
Fc1ccc(CNc2ncnc3ccc(F)cc23)cc1 [Spautin-1, spautin-1]	–	3210 nM	6780 nM	3040 nM	4430 nM	2800 nM	8 µM	> 50 µM	–	–	–	–	–	–	–	–	–	–
O=C(NN1C(=O)[C@@H]2[C@@H]3C=C[C@@H]([C@H]4C[C@@H]34)[C@@H]2C1=O)c1ccc(C(F)(F)F)cc1 [Tecovirimat, tecovirimat]	potently inhibited MPXV	150 nM	–	70 nM	–	–	–	–	120 nM	–	80 nM	–	–	> 50 µM	> 50 µM	dose-dependent decrease	dose-dependent decrease	dose-dependent decrease
O=C1c2ccccc2-n2c1nc1ccccc1c2=O [Tryptanthrin, tryptanthrin]	–	4780 nM	1380 nM	970 nM	–	–	–	–	4790 nM	1390 nM	870 nM	1340 nM	810 nM	–	–	–	–	–
CC(C)[C@@H]1NC(=O)[C@H](C)OC(=O)[C@@H](C(C)C)NC(=O)[C@@H](C(C)C)OC(=O)[C@H](C(C)C)NC(=O)[C@H](C)OC(=O)[C@@H](C(C)C)NC(=O)[C@@H](C(C)C)OC(=O)[C@H](C(C)C)NC(=O)[C@H](C)OC(=O)[C@@H](C(C)C)NC(=O)[C@@H](C(C)C)OC1=O [Valinomycin, valinomycin]	–	–	–	–	–	–	–	–	1 nM	3 nM	2 nM	3 nM	2 nM	–	–	–	–	–
